target: human BCL6 BTB domain (Trx-6xHis-BCL6) (Homo sapiens (Human), UniProt P41182); experiment: HTRF in vitro assay (BCL6 BTB domain / BCOR-AF633 peptide); assay type: binding; settings: further generated data (Table 1b); 1 nM Trx-6xHis-BCL6, 0.5 nM anti-6xHis-Terbium cryptate
Method: The % inhibition at each concentration was calculated by normalising FRET ratio to the appropriate high (DMSO with all reagents) and low (DMSO without BCL6) controls.

Row | Compound | HTRF pIC50
1 | Cn1c(=O)cc(NC(C)(C)c2ncccn2)c2cc(Nc3cc(C(=O)N4CC5(CCO5)C4)nc(Cl)c3C#N)ccc21 [Example 8g, 2-chloro-4-((1-methyl-2-oxo-4-((2-(pyrimidin-2-yl)propan-2-yl)amino)-1,2-dihydroquinolin-6-yl)amino)-6-(1-oxa-6-azaspiro[3.3]heptane-6-carbonyl)nicotinonitrile] | 7.82
2 | Cn1c(=O)cc(NC(C)(C)c2ncccn2)c2cc(Nc3cc(C(=O)N4CC(CC#N)C4)nc(Cl)c3C#N)ccc21 [Example 8h, 2-chloro-6-(3-(cyanomethyl)azetidine-1-carbonyl)-4-((1-methyl-2-oxo-4-((2-(pyrimidin-2-yl)propan-2-yl)amino)-1,2-dihydroquinolin-6-yl)amino)nicotinonitrile] | 7.68
3 | Cn1c(=O)cc(NC(C)(C)c2ncc(C3CC3)cn2)c2cc(Nc3cc(C(=O)O)nc(Cl)c3C#N)ccc21 [Example 9a, 6-chloro-5-cyano-4-((4-((2-(5-cyclopropylpyrimidin-2-yl)propan-2-yl)amino)-1-methyl-2-oxo-1,2-dihydroquinolin-6-yl)amino)picolinic acid] | 7.74
4 | C[C@@H](Nc1cc(=O)n(C)c2ccc(Nc3cc(C(=O)O)nc(Cl)c3C#N)cc12)C1CC1 [Example 9b, (R)-6-chloro-5-cyano-4-((4-((1-cyclopropylethyl)amino)-1-methyl-2-oxo-1,2-dihydroquinolin-6-yl)amino)picolinic acid] | 7.13
5 | Cn1c(=O)cc(NCCF)c2cc(Nc3cc(C(=O)O)nc(Cl)c3C#N)ccc21 [Example 9c, 6-chloro-5-cyano-4-((4-((2-fluoroethyl)amino)-1-methyl-2-oxo-1,2-dihydroquinolin-6-yl)amino)picolinic acid] | 6.05
6 | C[C@H](Nc1cc(=O)n(C)c2ccc(Nc3cc(C(=O)O)nc(Cl)c3C#N)cc12)C1CC1 [Example 9d, (S)-6-chloro-5-cyano-4-((4-((1-cyclopropylethyl)amino)-1-methyl-2-oxo-1,2-dihydroquinolin-6-yl)amino)picolinic acid] | 6.13
7 | Cn1c(=O)cc(NC(C)(C)c2ncccn2)c2cc(Nc3cc(C(=O)O)nc(Cl)c3C#N)ccc21 [Example 9f, 6-chloro-5-cyano-4-((1-methyl-2-oxo-4-((2-(pyrimidin-2-yl)propan-2-yl)amino)-1,2-dihydroquinolin-6-yl)amino)picolinic acid] | 7.65
8 | Cn1c(=O)cc(NC2(C#N)CC2)c2cc(Nc3cc(C(=O)O)nc(Cl)c3C#N)ccc21 [Example 9g, 6-chloro-5-cyano-4-((4-((1-cyanocyclopropyl)amino)-1-methyl-2-oxo-1,2-dihydroquinolin-6-yl)amino)picolinic acid] | 7.05
9 | C#CC1(Nc2cc(=O)n(C)c3ccc(Nc4cc(C(=O)O)nc(Cl)c4C#N)cc23)CC1 [Example 9h, 6-chloro-5-cyano-4-((4-((1-ethynylcyclopropyl)amino)-1-methyl-2-oxo-1,2-dihydroquinolin-6-yl)amino)picolinic acid] | 6.77
10 | Cn1c(=O)cc(NC2CC2(C)C)c2cc(Nc3cc(C(=O)O)nc(Cl)c3C#N)ccc21 (stereo not shown) [Example 9j, 6-chloro-5-cyano-4-((4-((2,2-dimethylcyclopropyl)amino)-1-methyl-2-oxo-1,2-dihydroquinolin-6-yl)amino)picolinic acid] | 6.49
11 | Cn1c(=O)cc(NC2(CO)CC2)c2cc(Nc3cc(C(=O)O)nc(Cl)c3C#N)ccc21 [Example 9k, 6-chloro-5-cyano-4-((4-((1-(hydroxymethyl)cyclopropyl)amino)-1-methyl-2-oxo-1,2-dihydroquinolin-6-yl)amino)picolinic acid] | 6.35
12 | Cn1c(=O)cc(NCC2CC2)c2cc(Nc3cc(C(=O)O)nc(Cl)c3C#N)ccc21 [Example 9l, 6-chloro-5-cyano-4-((4-((cyclopropylmethyl)amino)-1-methyl-2-oxo-1,2-dihydroquinolin-6-yl)amino)picolinic acid] | 6.56
13 | COCC(C)(C)Nc1cc(=O)n(C)c2ccc(Nc3cc(C(=O)O)nc(Cl)c3C#N)cc12 [Example 9m, 6-chloro-5-cyano-4-((4-((1-methoxy-2-methylpropan-2-yl)amino)-1-methyl-2-oxo-1,2-dihydroquinolin-6-yl)amino)picolinic acid] | 7.01
14 | Cn1c(=O)cc(NC(C)(C)C)c2cc(Nc3cc(C(=O)O)nc(Cl)c3C#N)ccc21 [Example 9n, 4-((4-(tert-butylamino)-1-methyl-2-oxo-1,2-dihydroquinolin-6-yl)amino)-6-chloro-5-cyanopicolinic acid] | 6.84
15 | CCC(C)(C)Nc1cc(=O)n(C)c2ccc(Nc3cc(C(=O)O)nc(Cl)c3C#N)cc12 [Example 9o, 6-chloro-5-cyano-4-((1-methyl-2-oxo-4-(tert-pentylamino)-1,2-dihydroquinolin-6-yl)amino)picolinic acid] | 6.66
16 | CC(Nc1cc(=O)n(C)c2ccc(Nc3cc(C(=O)O)nc(Cl)c3C#N)cc12)c1ncc(C2CC2)cn1 (stereo not shown) [Example 9p, 6-chloro-5-cyano-4-((4-((1-(5-cyclopropylpyrimidin-2-yl)ethyl)amino)-1-methyl-2-oxo-1,2-dihydroquinolin-6-yl)amino)picolinic acid] | 7.25
17 | CC(Nc1cc(=O)n(Cc2ccccc2)c2ccc(Nc3cc(C(=O)O)nc(Cl)c3C#N)cc12)c1ncccn1 (stereo not shown) [Example 9q, 4-((1-benzyl-2-oxo-4-((1-(pyrimidin-2-yl)ethyl)amino)-1,2-dihydroquinolin-6-yl)amino)-6-chloro-5-cyanopicolinic acid] | 6.81
18 | COc1cc(Nc2ccnc(Cl)c2C#N)cc2c(NC(C)(C)c3ncccn3)cc(=O)n(C)c12 [Example 10r, 2-chloro-4-((8-methoxy-1-methyl-2-oxo-4-((2-(pyrimidin-2-yl)propan-2-yl)amino)-1,2-dihydroquinolin-6-yl)amino)nicotinonitrile] | 6.32
19 | CC(Nc1cc(=O)n(C)c2ccc(Nc3ncnc(Cl)c3C#N)cc12)c1ncccn1 (stereo not shown) [Example 10t, 4-chloro-6-((1-methyl-2-oxo-4-((1-(pyrimidin-2-yl)ethyl)amino)-1,2-dihydroquinolin-6-yl)amino)pyrimidine-5-carbonitrile] | 6.22
20 | CC(Nc1cc(=O)n(CC2CCCCC2)c2ccc(Nc3ccnc(Cl)c3C#N)cc12)c1ncccn1 (stereo not shown) [Example 10v, 2-chloro-4-((1-(cyclohexylmethyl)-2-oxo-4-((1-(pyrimidin-2-yl)ethyl)amino)-1,2-dihydroquinolin-6-yl)amino)nicotinonitrile] | 6.17
21 | Cn1cc(CNC(=O)C(C)(C)Nc2cc(=O)n(C)c3ccc(Nc4ccnc(Cl)c4C#N)cc23)cn1 [Example 11c, 2-((6--((2-chloro-3-cyanopyridin-4-yl)amino)-1-methyl-2-oxo-1,2-dihydroquinolin-4-yl)amino)-2-methyl-N-((1-methyl-1H-pyrazol-4-yl)methyl)propanamide] | 6.42
22 | COc1ncc(Cl)c(Nc2ccc3c(c2)c(N[C@H](CO)C2CC2)cc(=O)n3C)n1 [Example 11f, (S)-6-((5-chloro-2-methoxypyrimidin-4-yl)amino)-4-((1-cyclopropyl-2-hydroxyethyl)amino)-1-methylquinolin-2(1H)-one] | 6.13
